Consider one compound from patent US20080300298A1, “Honokiol Derivates For the Treatment of Proliferative Disorders” (priority 2005, published 2008).

Structures are written as SMILES.

The subject of this series is MM.1S cells. The series can be described thus: combination with bortezomib. The format is cell-based, human. As for the experimental part: Assessment of HNK-induced cytotoxicity against patient MM cells: Cytotoxicity of HNK against fresh MM cells was determined as previously determined, see, for example, Mitsiades et al Cancer Cell. 2004; 5:221-230. Fresh MNCs separated from bone marrow samples derived from patients with MM were incubated with PE-conjugated anti-CD138 antibody and/or FITC-conjugated anti-CD38 antibody (BD Biosciences, San Diego, Calif.) for 30 minutes on ice and washed, followed by analysis using EPICS XL flow cytometer (Beckman Coulter, Hialeah, Fla.). A CD38^high fraction enriched for MM cells was determined in side and forward scatter panel in each case. The expression of CD138 on gated cells was also evaluated. After HNK-treatment for 48 h, cells were harvested and percentage of CD38^high cells with or without HNK-treatment was evaluated. […] Cells were stained with propidium iodide (PI; 50 μg/mL; Sigma, St Louis, Mo.), and cell cycle profile was determined by using the program M software on an EPICS XL flow cytometer (Beckman Coulter, Hialeah, Fla.). […] Fluorescence intensity of TUNEL and APO 2.7 staining was determined using on EPICS XL flow cytometer. Cytotoxicity was determined by trypan blue exclusion assay. […] Cell growth and induction of apoptosis were determined both by colorimetric assay and now cytometric detection of APO2.7 after 48 h treatment. […] DNA synthesis was measured by [^3H]-thymidine uptake. […]

For `C=CCc1ccc(O)c(-c2ccc(O)c(CC=C)c2)c1` [HNK, Honokiol], the “Bortezomib-induced up-regulation of Hsp27, p-Hsp27 and Hsp70” value (8 h, Western blotting) is reported as “significantly blocked”. Further, the “cytotoxicity and apoptosis of combined treatment with bortezomib” value (HNK and bortezomib, 48 h) is “enhanced the cytotoxicity and induction of apoptosis compared to each drug alone”.
